Assay results as given in patent US20210292306A1, “NOVEL INDOLE DERIVATIVE AND ANTI-CANCER CONPOSITION CONTAINING SAME” (KOREA RESEARCH INSTITUTE OF BIOSCIENCE AND BIOTECHNOLOGY, priority 2016, published 2021).
Converted amounts (≈) assume the structure as drawn.

Columns and labels:
SNU 484 = assay: Anti-proliferative activity in other cancer cell lines (MTT assay); type: cell-based; conditions: 96 h, SNU 484 (stomach), 4 days, mean of three assays
Protocol: (§1) HeLa cells (ATCC, USA), which are a human cervical cancer cell line, were dispensed into a 96-well plate at 2×10^3 cells/well, and the cells were treated with DMSO or the indole derivatives of the present invention, and then allowed to grow for 4 days. And then, MTT (3-(4,5-Dimethylthiazol-2-yl)-2,5-diphenyltetrazolium bromide) reagent was added to the wells at 10 μl/well. After 2 hours, the absorbance was measured at “OD 450” and statistical values were obtained using the plizm6 program. The data represent mean values of the results of two repeated assays (Table 1).
(§2) Specifically, various cancer cell lines were cultured on a microtiter plate (1-3×10^3 cells/well), and the cells were treated with the indole derivative of the present invention and cultured for 4 days. Cytotoxicity was examined by the MTT assay by the same method as in Experimental Example 1-1, and the IC50 was obtained by the log-dose response curve. The data represent mean values of the results of three repeated assays (Table 2).

U373MG = assay: as above; type: cell-based; conditions: Homo sapiens, U373 MG, 96 h, U373MG (brain), 4 days, mean of three assays
Protocol: as §1, §2

A172 [1] = assay: as above; type: cell-based; conditions: Homo sapiens, A 172, 96 h, A172 (brain), 4 days, mean of three assays
Protocol: as §1, §2

Wehi 3 = assay: as above; type: cell-based; conditions: 96 h, Wehi 3 (bone marrow), 4 days, mean of three assays
Protocol: as §1, §2

K562 [2] = assay: as above; type: cell-based; conditions: Homo sapiens, 96 h, K562 (bone marrow), 4 days, mean of three assays
Protocol: as §1, §2

NCIH-125 [3] = assay: as above; type: cell-based; conditions: Homo sapiens, NCI-H125, 96 h, NCIH-125 (lung), 4 days, mean of three assays
Protocol: as §1, §2

MCF7 [4] = assay: as above; type: cell-based; conditions: Homo sapiens, 96 h, MCF7 (breast), 4 days, mean of three assays
Protocol: as §1, §2

Hep3B [5] = assay: as above; type: cell-based; conditions: Homo sapiens, 96 h, Hep3B (liver), 4 days, mean of three assays
Protocol: as §1, §2

HeLa cells = assay: Anti-proliferative activity in HeLa cell line (MTT assay); type: cell-based; conditions: Homo sapiens, 96 h, 4 days, mean of two repeated assays
Protocol: as §1

[6] = Solubility in phosphate buffer; type: physicochemical; conditions: aqueous buffer, thermodynamic from solid
Protocol: In order to examine the solubility of the indole derivative of the present invention, the solubility of the compound of Example 1 (WCI-1031) was examined at pH 6.5 or pH 7.4.
Specifically, a solid sample (˜1 mg) of the test substance was placed on Whatman Syringeless filter (PVDF membrane, 0.45 μm pore size) and mixed with 0.5 ml of a phosphate buffer (pH 6.5 or 7.4). The mixture was sonicated for 15 minutes and vortexed for 1 hour at room temperature. The equilibrated mixture was filtered and the filtrate was analyzed with a multi-wavelength UV plate reader (FIGS. 8 and 9).

[7] = Stability in blood plasma after intravenous injection; type: in vivo; conditions: plasma concentration over time (FIG. 7)
Protocol: In order to examine the stability of the indole derivative of the present invention in vivo, the compound of Example 1 (WCI-1031) was injected intravenously and the plasma concentration was observed over time (FIG. 7).

MCF7/ADR = assay: Anti-proliferative activity in cancer cells showing multiple drug resistance (MTT assay); type: cell-based
Protocol: (§3) HeLa cells (ATCC, USA), which are a human cervical cancer cell line, were dispensed into a 96-well plate at 2×10^3 cells/well, and the cells were treated with DMSO or the indole derivatives of the present invention, and then allowed to grow for 4 days. And then, MTT (3-(4,5-Dimethylthiazol-2-yl)-2,5-diphenyltetrazolium bromide) reagent was added to the wells at 10 μl/well. After 2 hours, the absorbance was measured at “OD 450” and statistical values were obtained using the plizm6 program. The data represent mean values of the results of two repeated assays (Table 1). Specifically, K562 and MCF7 (Bio Evaluation Center, Korea Research Institute of Bioscience and Biotechnology, Korea), and K562/ADR and MCF7/ADR (Bio Evaluation Center, Korea Research Institute of Bioscience and Biotechnology, Korea), which are multiple drug-resistant cell lines of the above mentioned cell lines, respectively, were cultured on a microtiter plate at 1-3×10^3 cells/well.

K562/ADR = assay: as above; type: cell-based
Protocol: as §3

PC3 = assay: Effect on cell cycle progression (propidium iodine, FACS); type: cell-based; conditions: PC3, 17 hours
Protocol: (§4) Several cancer cell lines were cultured on a 12 well plate (3×10^4 cells/well), and treated with DMSO or WCI-1031, an indole derivative of the present invention, for 17 hours, and then added with a propidium iodine dye to stain the cellular DNA, and subjected to measurement using FACS. The concentrations at which cells gathered in the G2/M phase and numbers of the cells represented as percentages were shown (Table 5).

MCF7 ADR = assay: as above; type: cell-based; conditions: 17 hours
Protocol: as §4

EL4 = assay: as above; type: cell-based; conditions: EL4, 17 hours
Protocol: as §4

A172 [8] = assay: as above; type: cell-based; conditions: A172, 17 hours
Protocol: as §4

K562 [9] = assay: as above; type: cell-based; conditions: K562, 17 hours
Protocol: as §4

NCIH-125 [10] = assay: as above; type: cell-based; conditions: NCIH-125, 17 hours
Protocol: as §4

MCF7 [11] = assay: as above; type: cell-based; conditions: MCF7, 17 hours
Protocol: as §4

Hep3B [12] = assay: as above; type: cell-based; conditions: 17 hours
Protocol: as §4

IC50 (SNU 484): 493 nM
IC50 (U373MG): 262 nM
IC50 (A172 [1]): 1120 nM
IC50 (Wehi 3): 290 nM
IC50 (K562 [2]): 549 nM
IC50 (NCIH-125 [3]): 333 nM
IC50 (MCF7 [4]): 1320 nM
IC50 (Hep3B [5]): 503 nM
IC50 (HeLa cells): 653 nM
solubility at 1 h ([6]; phosphate buffer pH 6.5, room temperature): 0.9 µg/mL (≈ 2.05 µM)
solubility at 1 h ([6]; phosphate buffer pH 7.4, room temperature): 0.4 µg/mL (≈ 0.91 µM)
stability in the blood plasma [7]: excellent
IC50 (MCF7/ADR; Homo sapiens, NCI/ADR-RES, 96 h, MCF7/ADR multiple drug-resistant line, 4 days, MTT, mean of three assays): 481 nM
IC50 (K562/ADR; Homo sapiens, 96 h, K562/ADR multiple drug-resistant line, 4 days, MTT, mean of three assays): 318 nM
SMILES: COC(=O)Cn1c(C)c(/C=N/NC(=O)c2cc3c(ccc4ccccc43)o2)c2ccccc21 [WCI-1031, methyl (E)-2-(2-methyl-3-((2-(naphtho[2,1-b]furan-2-carbonyl) hydrazono)methyl)-1H-indole-1-yl)acetate]
Resistance factor (MCF7/ADR; ratio of IC50 MCF7/ADR to IC50 MCF7): 0.36
Resistance factor (K562/ADR; ratio of IC50 K562/ADR to IC50 K562): 0.60
effect μM (concentration at which cells gathered in the G2/M phase) (PC3): 0.5 µM
% of G2/M (PC3; at the effect concentration): 65.35%
effect μM (concentration at which cells gathered in the G2/M phase) (MCF7 ADR): 0.5 µM
% of G2/M (MCF7 ADR; at the effect concentration): 52.37%
effect μM (concentration at which cells gathered in the G2/M phase) (EL4): 0.5 µM
% of G2/M (EL4; at the effect concentration): 50.84%
effect μM (concentration at which cells gathered in the G2/M phase) (A172 [8]): 1.0 µM
% of G2/M (A172 [8]; at the effect concentration): 70.10%
effect μM (concentration at which cells gathered in the G2/M phase) (K562 [9]): 0.5 µM
% of G2/M (K562 [9]; at the effect concentration): 76.72%
effect μM (concentration at which cells gathered in the G2/M phase) (NCIH-125 [10]): 1.0 µM
% of G2/M (NCIH-125 [10]; at the effect concentration): 48.10%
effect μM (concentration at which cells gathered in the G2/M phase) (MCF7 [11]): 0.5 µM
% of G2/M (MCF7 [11]; at the effect concentration): 59.08%
effect μM (concentration at which cells gathered in the G2/M phase) (Hep3B [12]): 0.5 µM
% of G2/M (Hep3B [12]; at the effect concentration): 68.13%
